Values belong to the molecule of their own block, whether it stands above or below them. Square brackets hold non-standard residues; d marks the D form. Peptide text beside a SMILES is read from it. * marks the point of attachment. CA = chloroamidine (on ornithine side chain, O(CA) = ornithine chloroamidine), N=C(CCl)*; Orn(fluoroacetimidoyl) = N=C(CF)NCCC[C@H](N)C(=O)O; Orn = NCCC[C@H](N)C(=O)O
Experiments:
[1] = biological target: T1, PAD2 (Homo sapiens, UniProt Q9Y2J8); assay: ABAP antibody based PAD enzyme activity assay, PAD2; assay type: biochemical; details: Table 19, first 8 pentapeptide inhibitors
Experimental: These 8 pentapeptides inhibitors are represented by SEQ ID NO: 12-19. (O(FA) stands for ornithine fluoroamidine, O(CA) stands for ornithine chloroamidine). The IC50's for human PAD2 and 4 as well as for mouse PAD2 and 4 were determined in an assay developed by Zendman and others {Zendman et al. 2007}. Of this series the inhibitor T-D-O(FA)-G-S(CXP5-101) (SEQ ID NO: 12) was the best PAD2 and PAD4 inhibitor. Subsequently, several modifications were brought to this lead compound.
To determine inhibition of PAD2 and PAD4 activity, the commercially available Antibody based PAD enzyme activity assay from ModiQuest Research (cat no: MQ17.101) has been used according to manufacturers specifications.
PAD enzymes (amounts that give maximum deimination) were mixed with PAD inhibitors at the following concentrations (4.9, 9.8, 19.5, 39, 78.1, 156, 313, 625, 1250, 2500 and 5000 μM) and pre-incubated for 30 minutes at 37° C. After pre-incubation, mixtures of PAD enzymes and inhibitors were added to the wells for an additional incubation of 75 minutes. After thoroughly washing the 96-well plates with PBS, the conversion of the arginines into citrullines of the coating was measured with the use of a propriety anti-citrulline-antibody, followed by a secondary HRP-labelled antibody recognizing the anti-citrulline antibody. Incubation with both antibodies was performed for 1 h at 37° C. […]

[2] = tested on: collagen antibody induced arthritis (CAIA); assay: Collagen antibody induced arthritis (CAIA) mouse model; assay type: in vivo; details: 0.5 mg daily i.v. day 3 to 11 except day 9, male DBA/J1 mice, FIG. 6
Experimental: FIG. 6. The collagen antibody induced arthritis (CAIA) model (MQR; 18.101) was used to test the therapeutic effect of the PAD-inhibitor CXP5.7-011 (SEQ ID NO:143). At day 0 mice were injected i.p. with 2.8 mg anti-collagen antibodies. LPS (25 μg/mouse) was administered on day 3 via i.p. injection. The inhibitor (0.5 mg CXP5.7-011 in 200 μl PBS containing 20 mM sodium phosphate), or 200 μl PBS containing 20 mM sodium phosphate as the placebo, was administered daily from day 3 until day 11 (with the exception of day 9). Animals were scored daily until day 14 for degree of inflammation. Mean arthritis score per experimental group (5 mice) is indicated at each time point.
One of the peptide based human PAD 2 and PAD 4 inhibitors was tested in the commercially available collagen antibody induced arthritis (CAIA) mouse model (Modiquest research B.V., product number 18.101). Experimental procedures were performed according to manufacturers specifications to induce arthritis in mice (World Wide Web (www) modiquestresearch.n1/shop/files/18.101-50MG%20 —2007.08.22.pdf) In short, on day 0 male DBA/J1 mice (5mice/group) of the age of 8 weeks have been injected i.p. with a mix of 8 anti-collagen antibodies (2.8 mg/mouse). […]
Animals where scored daily for degree of inflammation in their paws. […]

[3] = biological target: creatine kinase (CK); assay: Creatine kinase activity (CK NAC activated liquiUV test); assay type: biochemical, mammalian; details: enzyme treated with inhibitor 10 min at room temperature
Experimental: (§1) The activities of CK and TG (both purchased from Sigma-Aldrich (Schnelldorf, Germany) were assayed with the help of the commercial kits CK NAC activated liquiUV test form
(§2) Human GmbH (Wiesbaden, Germany) and the Enzymatic Assay of [sequence] from Sigma-Aldrich (Schnelldorf, Germany) according to the manufacturers' instructions.

[4] = biological target: papain (Carica papaya, UniProt P00784); assay: biochemical
Experimental: The activity of papain was assessed using a similar experimental setting, based on its cleavage of pGlu-Phe-Leu-pNA in reaction buffer (25 mM Tris-HCL, pH 7.6; 150 mM NaCl).

[5] = biological target: transglutaminase (TG) (UniProt P08587); assay: biochemical
Experimental: as §1, §2

[6] = biological target: T2, caspase-3 (Homo sapiens, UniProt P42574); assay: Caspase-3 activity assay (Ac-DEVDpNA cleavage); assay type: biochemical, mammalian; details: enzyme treated with inhibitor 10 min at room temperature
T2 sequence (P42574 29-175 limits assumed): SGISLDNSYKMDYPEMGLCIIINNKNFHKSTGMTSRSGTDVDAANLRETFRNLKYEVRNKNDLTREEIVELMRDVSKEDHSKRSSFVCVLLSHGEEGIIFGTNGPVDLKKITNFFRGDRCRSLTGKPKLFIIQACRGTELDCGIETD
T2 sequence (P42574 176-277 limits assumed): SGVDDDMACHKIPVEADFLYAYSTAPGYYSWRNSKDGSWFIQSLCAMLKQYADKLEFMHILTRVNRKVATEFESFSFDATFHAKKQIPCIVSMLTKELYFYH
Experimental: Upon incubation of purified recombinant caspase-3 with its commercially available substrate: acetyl-Asp-Glu-Val-Asp-p-nitroanilide (Ac-DEVDpNA) SEQ ID NO: 145 in CFS buffer (220 mM mannitol, 68 mM sucrose, 2mM NaCl, 2.5 mM KH2PO4, 10 mM HEPES, pH 7.4 plus a cocktail of protease inhibitors), the substrate is cleaved, pNA is released and its absorbance at 405 nm can be monitored.

[7] = biological target: hDDAH-1 (Homo sapiens, UniProt O94760); assay: biochemical
Experimental: The most commonly used procedure to determine hDDAH-1 activity relies on diacetyl monoxime (DAMO) derivatization of the ureido group in L-citrulline to form a colored product. This assay has been optimized for monitoring DDAH activity in a 96-well format {Knipp et al., 2000}.
Purified recombinant His6-tagged hDDAH-1 was incubated with its substrate ADMA in assay buffer (100 mM Na2HPO4, pH 8.0) at 37° C. for 1 h. The reaction was quenched by the addition of 0.3 M trifluoroacetic acid. The L-citrulline formed was modified with 1.5 mg/ml DAMO (diacetyl monoxime) and 1.0 mg/ml antipyrine in the presence of 15% sulphuric acid, 12% phosphoric acid and 0.16 mg/ml FeCla3 for 10 minutes at 100° C. After cooling down to room temperature, the absorbance was measured at 450 nm.

[8] = biological target: T1, PAD2; assay: Colorimetric assay (BAEE, DAMO/antipyrine), PAD2; assay type: biochemical; details: Table 22, colorimetric assay of Example 6; read-out: IC50 values (μM) hPAD2
Experimental: One of the assays that was used to investigate the inhibition of a PAD by the inhibitors, is the colorimetric assay that has been described previously {Sugawara et al. 1998}. In this assay benzoylarginine ethyl ester (BAEE) is incubated with a purified recombinant PAD enzyme as indicated in a buffer containing 50 mM Tris-HCl, pH 7.6, 10 mM CaCl2, 2 mM dithiothreitol for 3 hours at 37° C. […] After cooling down to room temperature, the absorbance is measured at 450 nm.
To test the efficacy of the inhibitors (see Table 21) in this assay, a recombinant PAD enzyme as indicated was pre-incubated with various concentrations of inhibitory compounds for 15 minutes at 37° C.
The capacity of various compounds to inhibit the human PAD2 (0.12 μM) and PAD4 (0.2 μM) in this colorimetric assay is illustrated in FIG. 4.

T1 sequence (Q9Y2J8 whole entry): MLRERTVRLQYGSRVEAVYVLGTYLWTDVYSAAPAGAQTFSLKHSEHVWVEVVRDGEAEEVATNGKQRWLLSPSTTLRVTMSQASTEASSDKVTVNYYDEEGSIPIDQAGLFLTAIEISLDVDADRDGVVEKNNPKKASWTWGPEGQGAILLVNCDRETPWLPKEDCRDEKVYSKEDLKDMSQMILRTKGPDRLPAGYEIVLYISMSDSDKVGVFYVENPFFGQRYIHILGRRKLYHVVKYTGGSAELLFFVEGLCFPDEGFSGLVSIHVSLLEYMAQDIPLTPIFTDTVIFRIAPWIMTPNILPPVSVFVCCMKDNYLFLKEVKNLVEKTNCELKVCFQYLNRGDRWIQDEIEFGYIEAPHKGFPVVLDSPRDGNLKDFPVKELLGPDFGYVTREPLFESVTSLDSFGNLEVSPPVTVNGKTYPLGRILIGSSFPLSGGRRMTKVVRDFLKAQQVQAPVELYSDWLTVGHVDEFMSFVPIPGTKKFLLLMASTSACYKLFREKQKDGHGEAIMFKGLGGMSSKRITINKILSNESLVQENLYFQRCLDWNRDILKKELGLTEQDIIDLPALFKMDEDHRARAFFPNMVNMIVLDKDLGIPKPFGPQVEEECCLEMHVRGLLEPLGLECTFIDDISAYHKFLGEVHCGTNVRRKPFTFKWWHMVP
Chain of transglutaminase (TG) (P08587 whole entry): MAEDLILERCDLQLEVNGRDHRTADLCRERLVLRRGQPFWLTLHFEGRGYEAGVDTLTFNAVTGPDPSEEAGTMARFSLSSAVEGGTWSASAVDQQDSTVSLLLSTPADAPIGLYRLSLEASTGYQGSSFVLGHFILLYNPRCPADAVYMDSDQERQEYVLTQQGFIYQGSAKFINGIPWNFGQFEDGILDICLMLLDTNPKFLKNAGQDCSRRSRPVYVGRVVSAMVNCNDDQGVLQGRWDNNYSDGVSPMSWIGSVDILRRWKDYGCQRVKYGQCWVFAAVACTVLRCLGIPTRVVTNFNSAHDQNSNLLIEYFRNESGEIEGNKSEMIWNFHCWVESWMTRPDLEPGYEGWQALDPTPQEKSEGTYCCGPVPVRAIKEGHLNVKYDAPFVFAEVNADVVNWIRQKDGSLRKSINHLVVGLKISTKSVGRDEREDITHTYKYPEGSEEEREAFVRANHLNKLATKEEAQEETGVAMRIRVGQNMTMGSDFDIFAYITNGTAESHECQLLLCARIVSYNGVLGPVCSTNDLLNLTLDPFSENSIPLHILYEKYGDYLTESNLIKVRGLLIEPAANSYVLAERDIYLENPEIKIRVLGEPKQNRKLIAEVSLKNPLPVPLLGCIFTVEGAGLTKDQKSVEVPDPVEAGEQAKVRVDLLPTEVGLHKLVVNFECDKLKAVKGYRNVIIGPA
Chain of papain (P00784 134-345): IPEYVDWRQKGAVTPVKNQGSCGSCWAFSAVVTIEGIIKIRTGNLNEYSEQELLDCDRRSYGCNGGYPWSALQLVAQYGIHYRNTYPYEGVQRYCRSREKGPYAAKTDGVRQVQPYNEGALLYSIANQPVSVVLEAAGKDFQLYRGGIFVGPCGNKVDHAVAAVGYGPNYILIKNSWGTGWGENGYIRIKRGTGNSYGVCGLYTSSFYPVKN
Chain of hDDAH-1 (O94760 whole entry): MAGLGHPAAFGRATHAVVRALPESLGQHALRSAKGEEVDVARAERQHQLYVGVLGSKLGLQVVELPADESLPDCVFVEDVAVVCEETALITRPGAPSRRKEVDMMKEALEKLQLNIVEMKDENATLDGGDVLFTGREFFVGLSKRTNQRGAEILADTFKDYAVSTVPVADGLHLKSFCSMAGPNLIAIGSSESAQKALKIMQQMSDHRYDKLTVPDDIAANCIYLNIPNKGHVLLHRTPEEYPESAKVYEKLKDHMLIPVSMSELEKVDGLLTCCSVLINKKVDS

IC50 [1]: 17 µM
Molecule: N=C(CF)NCCC[C@H](NC(=O)[C@H](CC(=O)O)NC(=O)CN)C(=O)N[C@@H](CO)C(=O)NCC(=O)O [SEQ ID NO: 13, G-D-O(FA)-S-G] (H-GD[Orn(fluoroacetimidoyl)]SG-OH)

Molecule: Ac-Y-D-O(CA)-G-S-amide (Ac-YD[Orn](CA)GS-NH2; SMILES CC(=O)N[C@@H](Cc1ccc(O)cc1)C(=O)N[C@@H](CC(=O)O)C(=O)N[C@@H](CCCNC(=N)CCl)C(=O)NCC(=O)N[C@@H](CO)C(N)=O) [CXP5.7-011]
degree of inflammation (mean arthritis score) [2]: clearly demonstrates the inhibitory potential of the inhibitor in this model

Molecule: CC[C@H](C)[C@H](NC(=O)[C@H](Cc1ccccc1)NC(=O)[C@H](CC(=O)O)NC(=O)[C@H](CCCNC(=N)CF)NC(=O)[C@H](CC(=O)O)NC(=O)[C@H](Cc1ccccc1)NC(=O)[C@H](CCCCN)NC(C)=O)C(N)=O [Peptide 0743-58FA, Ac-K-F-D-O(FA)-D-F-I-amide] (Ac-KFD[Orn(fluoroacetimidoyl)]DFI-NH2)
IC50 [3]: 800 µM
IC50 [4]: > 2000 µM
IC50 [5]: 1000 µM
IC50 [6]: 920 µM
IC50 [7]: > 2000 µM
IC50 [8]: 35 µM
